What was measured:
[1] = test system: BT-474-M3 breast cancer cells; assay: BT-474-M3 breast cancer xenograft after failure to respond to T-DM1; type: in vivo, mice
Method: The response to the MM-302 and trastuzumab combination after failure to respond to T-DM1 was evaluated in the BT-474-M3 breast cancer xenograft model.
To obtain the BT-474-M3 HER2-overexpressing human breast cancer cell line, BT-474 cells (ATCC® HTB-20™) were passaged twice through mice with the fastest growing two tumors out of ten selected for ex-vivo propagation during each round of selection. Tumors were excised and cultured ex-vivo to obtain the M3 sub-line that was verified by SNP analysis. (see Noble, Cancer Chemother. Pharmacol. 2009 64:741-51).
Mice were inoculated with BT-474-M3 breast cancer cells (15×10^6; into the mammary fat pad). When tumor volumes reached about 360 mm^3, mice were treated with T-DM1 at either 1, 2, or 4 mg/kg (q1w) (white circles). […] At day 55, the mice were switched from T-DM1 treatment to the combination of MM-302 (3 mg/kg, q1w for a total of 3 doses; day 55, 62 and 69) and trastuzumab (at a loading dose of 8 mg/kg followed by 6 mg/kg q1w) (black squares). Changes in tumor volume as well as in mouse weight were monitored twice a week.

human cardiomyocytes = assay: Binding and uptake into human cardiomyocytes; type: cell-based; settings: compared with MM-302 and untargeted pegylated liposomal doxorubicin
Source text: Additionally, the number of HER2 receptors needed per cell to optimize the binding of MM-302 is approximately 200,000 HER2 receptors per cell. […] The primary mechanism of action of MM-302 is the use of the HER2 protein to selectively deliver doxorubicin into tumor cells that express greater than approximately 200,000 HER2 receptors per cell.

Molecule	tumor response to single agent ([1]; T-DM1 1, 2 or 4 mg/kg q1w)	slope of tumor volume curve (linear regression) ([1]; days 0-55, during T-DM1 treatment)	level of uptake into human cardiomyocytes (human cardiomyocytes)
T-DM1	failed to respond	positive slope	
COc1cccc2c1C(=O)c1c(O)c3c(c(O)c1C2=O)C[C@@](O)(C(=O)CO)C[C@@H]3O[C@H]1C[C@H](N)[C@H](O)[C@H](C)O1 [free doxorubicin, (8S,10S)-10-(4-amino-5 hydroxy-6-methyl-tetrahydro-2H-pyran-2-yloxy)-6,8,11-trihydroxy-8-(2-hydroxyacetyl)-1-methoxy-7,8,9,10-tetrahydrotetracene-5,12-dione]			relatively much higher

From US20170080087A1, “Combination Therapies for Treating Her2-Positive Cancers that are Resistant to Her2-Targeted Therapies” (MERRIMACK PHARMACEUTICALS, INC., priority 2014, published 2017)
